# Data as given in US10203334B2, “Methods and compositions related to nucleic acid binding assays” (Nubad, LLC, priority 2012, dated 2019).
# Read-outs that look alike come from different tables or passages of the source.
# Test: pKa of free probe from pH-dependent absorbance spectra
# Assay type: physicochemical
# Protocol: The mechanism for change in fluorescence of F-Neo upon binding to A-site rRNA oligonucleotide (SEQ ID No. 1) using UV absorption spectroscopy was investigated. Effect of pH on the absorbance spectra of 3.0 mM fluorescein-neomycin in 20 mM MOPSO, 0.4 mM EDTA, 50 mM NaCl at the indicated pH values were studied.
# With increasing pH, fluorescein-neomycin undergoes a transition between mono-anion and di-anion species. Fluorescein-neomycin concentration was 10 μM in 100 mM NaCl, 10 mM SC, 0.5 mM EDTA. As indicated by its absorbance spectra in FIG. 8A, the F-neo transitions from a mono-anion to a di-anion with increasing pH. FIG. 8B compares the absorbance spectra between the mono-anion and di-anion species of fluorescein neomycin. […] The absorbance peak of about 490 nm in FIGS. 8A and 8B is consistent with the phenolate species of fluorescein. The pKa for the equilibrium of the phenol and phenolate forms of F-neo (42a) was measured by evaluating the absorbance spectrum as a function of pH and shown to be 6.84. […] When monitoring the absorption spectrum in the presence of the A-site RNA (SEQ ID No. 1), a reduction in A490 consistent with the change in pKa was observed. […] This shift in pKa causes a change in the fluorescence intensity of F-neo (42a). […]
smiles,measurement,setting,value
"NCC1O[C@H](OC2C(O)C(OC3C(O)[C@H](N)CC(N)[C@H]3O[C@H]3OC(CN)[C@@H](O)C(O)C3N)O[C@@H]2CSCCNC(=O)CCSCC(=O)Nc2ccc(-c3c4ccc(=O)cc-4oc4cc(O)ccc34)c(C(=O)O)c2)C(N)C(O)[C@@H]1O (some centres unmarked) [F-neo (42a), Neomycin-Fluorescein Conjugate]",pKa,"buffer: 100 mM NaCl, free, 10 μM, 100 mM NaCl, 10 mM SC, 0.5 mM EDTA at 25° C., read-out: pKa",6.57
same,pKa,"free probe, absorbance spectrum as a function of pH, read-out: pKa for the equilibrium of the phenol and phenolate forms",6.84
